Converted amounts (≈) assume the structure as drawn.
Columns and labels:
[1] = tested on: Mycobacterium tuberculosis; test: Antimycobacterial activity against Mycobacterium tuberculosis H37Rv CNCTC My 331/88 incubated for 10 to 14 days by microplate alamar blue assay; assay type: functional
Mycobacterium kansasii = test: Antimycobacterial activity against Mycobacterium kansasii CNCTC My 235/80 incubated for 5 to 7 days by microplate alamar blue assay; assay type: functional
Mycobacterium avium [2] = test: Antimycobacterial activity against Mycobacterium avium CNCTC My 80/72 after 5 days by microplate alamar blue assay; assay type: functional; conditions: CNCTC My 80/72, 120 h
Mycobacterium avium [3] = test: Antimycobacterial activity against Mycobacterium avium CNCTC My 152/73 after 5 days by microplate alamar blue assay; assay type: functional; conditions: CNCTC My 152/73, 120 h
[4] = Lipophilicity, logK of the compound by RP-HPLC analysis; assay type: physicochemical
[5] = Cytotoxicity against CRFK cells assessed as cell viability after 4 to 6 days by formazan-based MTS assay; set-up: species or system Felis catus; conditions: cat
[6] = Cytotoxicity against HEL cells assessed as cell viability after 4 to 6 days by microscopic analysis; assay type: cell-based; conditions: human
[7] = Cytotoxicity against human HeLa cells assessed as cell viability after 4 to 6 days by microscopic analysis; assay type: cell-based
[8] = Cytotoxicity against African green monkey Vero cells assessed as cell viability after 4 to 6 days by microscopic analysis; assay type: cell-based; conditions: chlorocebus sabaeus
[9] = Cytotoxicity against MDCK cells assessed as cell viability after 4 to 6 days by formazan-based MTS assay; set-up: species or system Canis lupus familiaris; conditions: dog
[10] = Cytotoxicity against MDCK cells assessed as cell viability after 4 to 6 days by microscopic analysis; assay type: cell-based, Canis lupus familiaris; conditions: dog
Influenza A virus [11] = test: Antiviral activity against Influenza A virus (A/Puerto Rico/8/(H1N1)) assessed as inhibition of virus-induced cytopathic effect after 3 to 6 days by formazan-based MTS assay; assay type: functional, organism-based
Escherichia coli = test: Antibacterial activity against Escherichia coli CCM 4517 after 24 to 48 hrs by broth microdilution method; assay type: functional
Pseudomonas aeruginosa = test: Antibacterial activity against Pseudomonas aeruginosa CCM 1961 after 24 to 48 hrs by broth microdilution method; assay type: functional
Klebsiella pneumoniae [12] = test: Antibacterial activity against Klebsiella pneumoniae D 11750/08 after 24 to 48 hrs by broth microdilution method; assay type: functional
Klebsiella pneumoniae [13] = test: Antibacterial activity against ESBL positive Klebsiella pneumoniae J 14368/08 after 24 to 48 hrs by broth microdilution method; assay type: functional
Candida albicans = test: Antifungal activity against Candida albicans ATCC 44859 after 24 to 48 hrs by broth microdilution method; assay type: functional
Candida tropicalis = test: Antifungal activity against Candida tropicalis 156 after 24 to 48 hrs by broth microdilution method; assay type: functional
Pichia kudriavzevii = test: Antifungal activity against Candida krusei E28 after 24 to 48 hrs by broth microdilution method; assay type: functional
Nakaseomyces glabratus = test: Antifungal activity against Candida glabrata 20/I after 24 to 48 hrs by broth microdilution method; assay type: functional
Trichosporon asahii = test: Antifungal activity against Trichosporon asahii 1188 after 24 to 48 hrs by broth microdilution method; assay type: functional
Aspergillus fumigatus = test: Antifungal activity against Aspergillus fumigatus 231 after 24 to 48 hrs by broth microdilution method; assay type: functional
Lichtheimia corymbifera = test: Antifungal activity against Lichtheimia corymbifera 272 after 24 to 48 hrs by broth microdilution method; assay type: functional
[14] = tested on: Trichophyton mentagrophytes; test: Antifungal activity against Trichophyton mentagrophytes 445 after 72 to 120 hrs by broth microdilution method; assay type: functional
Influenza A virus [15] = test: Antiviral activity against Influenza A virus (A/Puerto Rico/8/(H1N1)) assessed as inhibition of virus-induced cytopathic effect after 3 to 6 days by microscopic analysis; assay type: functional, organism-based

SMILES	MIC [1]	MIC (Mycobacterium kansasii)	MIC (Mycobacterium avium [2])	MIC (Mycobacterium avium [3])	log K [4]	CC50 [5]	MCC [6]	MCC [7]	MCC [8]	CC50 [9]	MCC [10]	EC50 (Influenza A virus [11])	MIC95 (Escherichia coli)	MIC95 (Pseudomonas aeruginosa)	MIC95 (Klebsiella pneumoniae [12])	MIC95 (Klebsiella pneumoniae [13])	MIC (Candida albicans)	MIC (Candida tropicalis)	MIC (Pichia kudriavzevii)	EC50 (Influenza A virus [15])	further results
O=C(NCc1ccccc1)c1nccnc1Cl	50 µM	100 µg/mL (≈ 404 µM)	> 100 µg/mL	> 100 µg/mL																	
CCCCCNc1nccnc1C(=O)NCc1ccccc1	> 100 µg/mL	> 100 µg/mL	> 100 µg/mL	> 100 µg/mL	1.321	> 100 µM	≥ 100 µM	> 100 µM	> 100 µM	> 100 µM	≥ 20 µM	> 100 µM	> 500 µM	> 500 µM	> 500 µM	> 500 µM	> 500 µM	> 500 µM	> 500 µM	> 100 µM	MIC (Nakaseomyces glabratus): > 500 µM; MIC (Trichosporon asahii): > 500 µM; MIC (Aspergillus fumigatus): > 500 µM; MIC (Lichtheimia corymbifera): > 500 µM; MIC [14]: > 500 µM
O=C(NCc1ccccc1)c1cncc(NCc2ccccc2)n1	157 µM	> 100 µg/mL	> 100 µg/mL	> 100 µg/mL	0.483																
CCCCCCCCNc1nccnc1C(=O)NCc1ccccc1	> 100 µg/mL	> 100 µg/mL	> 100 µg/mL	> 100 µg/mL	2.054	> 100 µM	> 100 µM	> 100 µM	> 100 µM	> 100 µM	100 µM	> 100 µM	> 500 µM	> 500 µM	> 500 µM	> 500 µM	> 500 µM	> 500 µM	> 500 µM	> 100 µM	MIC (Nakaseomyces glabratus): > 500 µM; MIC (Trichosporon asahii): > 500 µM; MIC (Aspergillus fumigatus): > 500 µM; MIC (Lichtheimia corymbifera): > 500 µM; MIC [14]: > 500 µM
O=C(NCc1ccccc1)c1nccnc1NCc1ccccc1	> 100 µg/mL	> 100 µg/mL	> 100 µg/mL	> 100 µg/mL	1.04	> 100 µM	> 100 µM	> 100 µM	> 100 µM	> 100 µM	20 µM	> 100 µM								> 100 µM	
NC(=O)c1cnccn1 [PYRAZINAMIDE]	102 µM	> 100 µg/mL			-0.687																
CCCCNc1nccnc1C(=O)NCc1ccccc1	> 100 µg/mL	> 100 µg/mL	> 100 µg/mL	> 100 µg/mL	1.081	> 100 µM	> 100 µM	> 100 µM	> 100 µM	> 100 µM	> 100 µM	> 100 µM	> 500 µM	> 500 µM	> 500 µM	> 500 µM	> 500 µM	> 500 µM	> 500 µM	> 100 µM	MIC (Nakaseomyces glabratus): > 500 µM; MIC (Trichosporon asahii): > 500 µM; MIC (Aspergillus fumigatus): > 500 µM; MIC (Lichtheimia corymbifera): > 500 µM; MIC [14]: > 500 µM
CCCCNc1cnc(C(=O)NCc2ccccc2)cn1	88 µM	> 100 µg/mL	> 100 µg/mL	> 100 µg/mL	0.424	> 100 µM	> 100 µM	> 100 µM	> 100 µM	57 µM	100 µM	> 100 µM	> 500 µM	> 500 µM	> 500 µM	> 500 µM	> 500 µM	> 500 µM	> 500 µM	> 100 µM	MIC (Nakaseomyces glabratus): > 500 µM; MIC (Trichosporon asahii): > 500 µM; MIC (Aspergillus fumigatus): > 500 µM; MIC (Lichtheimia corymbifera): > 500 µM; MIC [14]: > 500 µM
CCCCCCNc1nccnc1C(=O)NCc1ccccc1	> 100 µg/mL	> 100 µg/mL	> 100 µg/mL	> 100 µg/mL	1.564	> 100 µM	100 µM	> 100 µM	> 100 µM	> 100 µM	100 µM	> 100 µM	> 500 µM	> 500 µM	> 500 µM	> 500 µM	> 500 µM	> 500 µM	> 500 µM	> 100 µM	MIC (Nakaseomyces glabratus): > 500 µM; MIC (Trichosporon asahii): > 500 µM; MIC (Aspergillus fumigatus): > 500 µM; MIC (Lichtheimia corymbifera): > 500 µM; MIC [14]: > 500 µM
CCCCCNc1cnc(C(=O)NCc2ccccc2)cn1	21 µM	> 100 µg/mL	> 100 µg/mL	> 100 µg/mL	0.638	> 100 µM	> 100 µM	> 100 µM	> 100 µM	> 100 µM	> 100 µM	3.3 µM	> 500 µM	> 500 µM	> 500 µM	> 500 µM	> 500 µM	> 500 µM	> 500 µM	37 µM	MIC (Nakaseomyces glabratus): > 500 µM; MIC (Trichosporon asahii): > 500 µM; MIC (Aspergillus fumigatus): > 500 µM; MIC (Lichtheimia corymbifera): > 500 µM; MIC [14]: > 500 µM
CCCCCCCNc1nccnc1C(=O)NCc1ccccc1	> 100 µg/mL	> 100 µg/mL	> 100 µg/mL	> 100 µg/mL	1.809	> 100 µM	100 µM	> 100 µM	> 100 µM	> 100 µM	100 µM	> 100 µM	> 500 µM	> 500 µM	> 500 µM	> 500 µM	> 500 µM	> 500 µM	> 500 µM	> 100 µM	MIC (Nakaseomyces glabratus): > 500 µM; MIC (Trichosporon asahii): > 500 µM; MIC (Aspergillus fumigatus): > 500 µM; MIC (Lichtheimia corymbifera): > 500 µM; MIC [14]: > 500 µM

Reference: ChEMBL document CHEMBL3745676, “Alkylamino derivatives of N-benzylpyrazine-2-carboxamide: synthesis and antimycobacterial evaluation” (Medchemcomm, 2015)
